SMILES strings stand for the structures. Values after ≈ are worked out from the molar mass of the structure shown. Active and inactive are the calls of the source. No cut-off for these calls is given here.

A short description of experiment [1]: Effective dose required for in vitro cytotoxic activity against TE-671 medulloblastoma tumor cells. Type of experiment: functional. The settings on record: Homo sapiens, read-out: ED50 (the source's name).
Experiment [2] is described as follows: Effective dose required for in vitro cytotoxic activity against RPMI-7951 melanoma tumor cells. Type of experiment: functional. The settings on record: Homo sapiens, read-out: ED50 (the source's name).
The subject of the next experiment is HCT-8. Description: Dose required for in vitro cytotoxic activity against HCT-8 colon carcinoma cells at concentration of 10 ug/ml; NA is no cytotoxicity. The class given is functional, cell-based. The settings on record: Homo sapiens.
The subject of a further experiment is A549. As to the kind of experiment: Dose required for in vitro cytotoxic activity against A-549 lung carcinoma cells at concentration of 10 ug/ml; NA is no cytotoxicity. The class given is functional, cell-based. The conditions noted are these: Homo sapiens.

With `C=C(C=O)[C@H](C)[C@@H]1CCC23CC12CC[C@@H]1[C@@]2(C)CC[C@@H](OC(C)=O)C(C)(C)[C@@H]2C[C@@H](O[C@@H]2O[C@H](COC(C)=O)[C@@H](O)[C@H](O)[C@H]2O)[C@]13C` (some centres undefined), the values for the EC50 in experiment [1] and in experiment [2] were 2.74 µg/mL (≈ 4.15 µM) and 0.34 µg/mL (≈ 0.514 µM), respectively. The result in the experiment with HCT-8 and in the experiment on A549 was inactive.

The values above are taken from ChEMBL document CHEMBL1126413, “Cumindysoside A, a novel cytotoxic trisnortriterpene glucoside with a 14, 18-cycloapoeuphane-type skeleton from Dysoxylum cumingianum” (1992).
